# Laboratory results as given in ChEMBL document CHEMBL1151312, “A concise conversion of (-)-sclareol into (+)-coronarin E and (-)-7-epi-coronarin A” (J Nat Prod, 1998).
# Tested on: V79
# Experiment: Cytotoxicity against Chinese hamster V79 cells
# Type: cell-based
# Conditions: Cricetulus griseus
structure (smiles),measurement,value
C=C1[C@@H](O)C[C@H]2C(C)(C)CCC[C@]2(C)[C@H]1/C=C/c1ccoc1 [CORONARIN A],IC50,1.65 µg/mL
